Drawing on patent US20260325533A1, “CDK INHIBITOR COMPOUNDS” (ALEKSIA THERAPEUTICS, INC., priority 2023, published 2026), this text covers IC50 for 19 compounds.

Assay type in all cases: biochemical
One experiment addresses CDK6/CCND1 (Homo sapiens, UniProt Q00534). The experiment in a line: CDK6 homogeneous time-resolved fluorescence (HTRF) kinase assay. To be noted: CDK6/CCND. The method in brief:
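Enzyme pre-incubated 20 min at 23 °C with compound, then reacted 60 min at 23 °C with 1 mM ATP and 50 nM ULight-4E-BP1 (Thr37/46) peptide; 1 nM enzyme, 1% DMSO. EDTA-stopped, Eu-anti-phospho antibody TR-FRET read (665 nm or 665/615 ratio); 11-point half-log titration from 10 μM gave IC50.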
(In general: TR-FRET usually uses a lanthanide donor and a delayed reading to cut background.)

A further experiment concerns the target CDK4/CCND3 (Homo sapiens, UniProt P11802). Kind of experiment: CDK4 homogeneous time-resolved fluorescence (HTRF) kinase assay. To be noted: CDK4/CCND. The essentials:
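CDK4/CCND3 at 1.5 nM was preincubated with compound for 20 min at 23 °C, then reacted for 60 min with 1 mM ATP and 50 nM ULight-4E-BP1 (Thr37/46) peptide. The reaction was stopped with EDTA, and phosphorylation was read by HTRF with a Eu-anti-phospho antibody. IC50 values came from 11-point half-log titrations, typically from 10 μM.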

A further experiment addresses CDK1/CCNB1 (Homo sapiens, UniProt P06493). The experiment in a line: CDK1 homogeneous time-resolved fluorescence (HTRF) kinase assay. To be noted: CDK1/CCNB. The essentials: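 CDK1/CCNB1 0.5 nM + cpd, 20 min 23 °C; add 1 mM ATP, 50 nM ULight-4E-BP1 peptide, 60 min 23 °C; stop 10 mM EDTA; 2 nM Eu-Ab, 60 min; HTRF 665 nm. 11-pt half-log, top 10 μM typical; IC50.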
Another experiment addresses CDK2/CCNE1 (Homo sapiens, UniProt P24941). Kind of experiment: CDK2 homogeneous time-resolved fluorescence (HTRF) kinase assay. To be noted: CDK2/CCNE. The method in brief:
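CDK2/CCNE1 (3 nM) preincubated 20 min at 23 °C with compound, then reacted 60 min at 23 °C with 1 mM ATP and 50 nM ULight-4E-BP1 (Thr37/46) peptide. Stopped with EDTA, phospho-peptide detected by Eu-anti-phospho antibody (665 nm or 665/615 ratio). IC50 from 11-point half-log titrations typically starting at 10 μM.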

Setting [1] is: <25 nM, read-out: CDK6/CCND IC50 <25 nM.
The mark [2] stands for this setting: <25 nM, read-out: CDK4/CCND IC50 <25 nM.
[3] abbreviates: 25-250 nM marked x, read-out: CDK1/CCNB IC50 25-250 nM.
Setting [4] is: <25 nM, read-out: CDK2/CCNE IC50 <25 nM.
Setting [5] is: 25-250 nM marked x, read-out: CDK6/CCND IC50 25-250 nM.
The mark [6] stands for this setting: 25-250 nM marked x, read-out: CDK4/CCND IC50 25-250 nM.
Setting [7] is: >250 nM marked x, read-out: CDK1/CCNB IC50 >250 nM.
[8] abbreviates: 25-250 nM marked x, read-out: CDK2/CCNE IC50 25-250 nM.

Where two headings read alike, the source gives them in different places.

CDK6/CCND1, sequence (Q00534 whole entry): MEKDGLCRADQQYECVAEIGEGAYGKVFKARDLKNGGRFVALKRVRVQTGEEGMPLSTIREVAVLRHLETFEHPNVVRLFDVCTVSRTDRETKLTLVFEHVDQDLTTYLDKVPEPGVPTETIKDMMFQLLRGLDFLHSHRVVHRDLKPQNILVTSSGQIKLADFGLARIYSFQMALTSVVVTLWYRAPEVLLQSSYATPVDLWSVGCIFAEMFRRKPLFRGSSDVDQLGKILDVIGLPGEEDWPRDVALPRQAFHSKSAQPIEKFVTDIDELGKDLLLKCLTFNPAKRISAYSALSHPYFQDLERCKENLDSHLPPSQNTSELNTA
CDK6/CCND1, sequence (P24385 whole entry partner): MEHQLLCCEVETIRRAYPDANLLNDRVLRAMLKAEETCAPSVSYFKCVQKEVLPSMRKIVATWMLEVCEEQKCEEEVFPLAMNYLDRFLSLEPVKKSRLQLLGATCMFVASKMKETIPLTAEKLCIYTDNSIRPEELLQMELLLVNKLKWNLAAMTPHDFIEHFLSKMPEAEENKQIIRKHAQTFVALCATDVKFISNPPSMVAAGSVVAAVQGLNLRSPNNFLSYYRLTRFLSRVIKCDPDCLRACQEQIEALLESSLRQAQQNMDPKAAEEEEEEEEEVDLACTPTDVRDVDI
CDK4/CCND3, sequence (P11802 whole entry): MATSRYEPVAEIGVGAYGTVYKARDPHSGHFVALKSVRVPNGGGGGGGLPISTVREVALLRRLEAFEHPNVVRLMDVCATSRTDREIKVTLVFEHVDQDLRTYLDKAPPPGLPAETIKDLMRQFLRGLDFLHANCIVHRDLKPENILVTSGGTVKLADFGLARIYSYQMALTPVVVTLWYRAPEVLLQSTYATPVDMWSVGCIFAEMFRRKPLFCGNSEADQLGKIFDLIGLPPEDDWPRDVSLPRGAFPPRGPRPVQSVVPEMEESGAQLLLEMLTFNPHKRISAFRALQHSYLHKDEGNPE
CDK4/CCND3, sequence (P30281 whole entry partner): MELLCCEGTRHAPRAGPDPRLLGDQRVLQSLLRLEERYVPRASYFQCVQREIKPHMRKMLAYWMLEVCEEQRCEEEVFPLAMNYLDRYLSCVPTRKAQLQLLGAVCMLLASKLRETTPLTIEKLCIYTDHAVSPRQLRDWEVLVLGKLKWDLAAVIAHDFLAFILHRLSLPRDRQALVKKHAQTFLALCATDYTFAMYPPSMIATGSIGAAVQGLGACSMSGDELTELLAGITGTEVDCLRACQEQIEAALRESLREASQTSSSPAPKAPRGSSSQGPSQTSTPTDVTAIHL
CDK1/CCNB1, sequence (P06493 whole entry): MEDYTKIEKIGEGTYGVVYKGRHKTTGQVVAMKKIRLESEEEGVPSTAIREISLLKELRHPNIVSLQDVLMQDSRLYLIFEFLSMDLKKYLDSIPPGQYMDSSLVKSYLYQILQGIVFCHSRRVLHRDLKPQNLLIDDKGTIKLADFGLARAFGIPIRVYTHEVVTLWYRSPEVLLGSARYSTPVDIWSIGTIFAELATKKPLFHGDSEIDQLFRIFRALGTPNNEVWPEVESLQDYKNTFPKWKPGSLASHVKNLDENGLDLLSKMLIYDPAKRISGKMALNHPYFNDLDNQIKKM
CDK1/CCNB1, sequence (P14635 whole entry partner): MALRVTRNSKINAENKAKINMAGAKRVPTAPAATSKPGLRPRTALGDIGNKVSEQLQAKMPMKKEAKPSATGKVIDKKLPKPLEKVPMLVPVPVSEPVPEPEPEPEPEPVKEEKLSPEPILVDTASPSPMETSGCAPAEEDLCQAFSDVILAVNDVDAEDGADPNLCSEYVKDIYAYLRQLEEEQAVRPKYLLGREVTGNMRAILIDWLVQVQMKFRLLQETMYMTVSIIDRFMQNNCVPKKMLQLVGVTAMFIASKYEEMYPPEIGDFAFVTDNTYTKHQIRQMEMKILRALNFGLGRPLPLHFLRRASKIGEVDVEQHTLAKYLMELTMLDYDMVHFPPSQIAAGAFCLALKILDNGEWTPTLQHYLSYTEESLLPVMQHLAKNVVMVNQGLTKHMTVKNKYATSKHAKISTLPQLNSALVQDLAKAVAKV

For `CS(=O)(=O)N1CCC(Nc2cc3c(-c4ccc5cn[nH]c5c4)nccc3cn2)CC1` [Ex 76, 5-(1H-indazol-6-yl)-N-(1-(methylsulfonyl)piperidin-4-yl)-2,6-naphthyridin-3-amine], the IC50 is below 25 nM on CDK6/CCND1 (setting [1]), below 25 nM at CDK4/CCND3 (setting [2]), 25 to 250 nM at CDK1/CCNB1 (setting [3]) and below 25 nM at CDK2/CCNE1 (setting [4]).

Take `CS(=O)(=O)N1CCC(Nc2cc3c(-c4ccc5[nH]ncc5c4)nccc3cn2)CC1` [Ex 77, 5-(1H-indazol-5-yl)-N-(1-(methylsulfonyl)piperidin-4-yl)-2,6-naphthyridin-3-amine]: the IC50 was 25 to 250 nM on CDK6/CCND1 (setting [5]), 25 to 250 nM on CDK4/CCND3 (setting [6]), above 250 nM on CDK1/CCNB1 (setting [7]) and below 25 nM at CDK2/CCNE1 (setting [4]).

Regarding `CS(=O)(=O)N1CCC(Nc2cc3c(-c4ccc(CO)cc4)nccc3cn2)CC1` [Ex 78, (4-(7-((1-(methylsulfonyl)piperidin-4-yl)amino)-2,6-naphthyridin-1-yl)phenyl)methanol], the IC50 at CDK6/CCND1 (setting [1]) is below 25 nM; at CDK4/CCND3 (setting [6]), 25 to 250 nM; on CDK1/CCNB1 (setting [7]) it was above 250 nM; at CDK2/CCNE1 (setting [4]), below 25 nM.

Regarding `CS(=O)(=O)N1CCC(Nc2cc3c(-c4ccccc4OC(F)(F)F)nccc3cn2)CC1` [Ex 81, N-(1-(methylsulfonyl)piperidin-4-yl)-5-(2-(trifluoromethoxy)phenyl)-2,6-naphthyridin-3-amine], the IC50 at CDK6/CCND1 (setting [5]) is 25 to 250 nM; on CDK4/CCND3 (setting [6]), 25 to 250 nM; at CDK1/CCNB1 (setting [7]), above 250 nM; at CDK2/CCNE1 (setting [4]), below 25 nM.

As for `CS(=O)(=O)N1CCC(Nc2cc3c(-c4cncs4)nccc3cn2)CC1` [Ex 82, N-(1-(methylsulfonyl)piperidin-4-yl)-5-(thiazol-5-yl)-2,6-naphthyridin-3-amine], the IC50 is 25 to 250 nM at CDK6/CCND1 (setting [5]), 25 to 250 nM at CDK4/CCND3 (setting [6]), above 250 nM on CDK1/CCNB1 (setting [7]) and below 25 nM at CDK2/CCNE1 (setting [4]).

As to `CS(=O)(=O)N1CCC(Nc2cc3c(C4=CCOCC4)nccc3cn2)CC1` [Ex 87, 5-(3,6-dihydro-2H-pyran-4-yl)-N-(1-(methylsulfonyl)piperidin-4-yl)-2,6-naphthyridin-3-amine], the IC50 at CDK6/CCND1 (setting [5]) is 25 to 250 nM; at CDK4/CCND3 (setting [6]), 25 to 250 nM; at CDK1/CCNB1 (setting [7]), above 250 nM; at CDK2/CCNE1 (setting [4]) it was below 25 nM.

For the compound `CS(=O)(=O)N1CCC(Nc2cc3c(-c4ccc5cc[nH]c5c4)nccc3cn2)CC1` [Ex 89, 5-(1H-indol-6-yl)-N-(1-(methylsulfonyl)piperidin-4-yl)-2,6-naphthyridin-3-amine], the IC50 on CDK6/CCND1 (setting [1]) is below 25 nM; on CDK4/CCND3 (setting [2]), below 25 nM; on CDK1/CCNB1 (setting [3]), 25 to 250 nM; at CDK2/CCNE1 (setting [4]), below 25 nM.

With `CS(=O)(=O)N1CCC(Nc2cc3c(-c4cc[nH]c4)nccc3cn2)CC1` [Ex 90, N-(1-(methylsulfonyl)piperidin-4-yl)-5-(1H-pyrrol-3-yl)-2,6-naphthyridin-3-amine], the IC50 at CDK6/CCND1 (setting [5]) is 25 to 250 nM; at CDK4/CCND3 (setting [6]), 25 to 250 nM; on CDK1/CCNB1 (setting [7]), above 250 nM; on CDK2/CCNE1 (setting [4]), below 25 nM.

For `CS(=O)(=O)N1CCC(Nc2cc3c(-c4ccc5c(c4)CC(=O)N5)nccc3cn2)CC1` [Ex 91, 5-(7-((1-(methylsulfonyl)piperidin-4-yl)amino)-2,6-naphthyridin-1-yl)indolin-2-one], the IC50 at CDK6/CCND1 (setting [5]) is 25 to 250 nM; on CDK4/CCND3 (setting [6]), 25 to 250 nM; on CDK1/CCNB1 (setting [7]), above 250 nM; at CDK2/CCNE1 (setting [4]), below 25 nM.

On to `CN(CCO)C(=O)c1nccc2cnc(NC3CCN(S(C)(=O)=O)CC3)cc12` [Ex 96, N-(2-hydroxyethyl)-N-methyl-7-((1-(methylsulfonyl)piperidin-4-yl)amino)-2,6-naphthyridine-1-carboxamide], for which the IC50 on CDK6/CCND1 (setting [5]), on CDK4/CCND3 (setting [6]), on CDK1/CCNB1 (setting [3]) and at CDK2/CCNE1 (setting [8]) was 25 to 250 nM throughout.

With `Oc1ccc(Nc2cc3c(C4=CCCCC4)nccc3cn2)cc1` [Ex 99, 4-((5-(cyclohex-1-en-1-yl)-2,6-naphthyridin-3-yl)amino)phenol], the IC50 is below 25 nM at CDK6/CCND1 (setting [1]), 25 to 250 nM on CDK4/CCND3 (setting [6]), 25 to 250 nM on CDK1/CCNB1 (setting [3]) and below 25 nM on CDK2/CCNE1 (setting [4]).

As to `Oc1cccc(Nc2cc3c(C4=CCCCC4)nccc3cn2)c1` [Ex 100, 3-((5-(cyclohex-1-en-1-yl)-2,6-naphthyridin-3-yl)amino)phenol], the IC50 was below 25 nM on CDK6/CCND1 (setting [1]), 25 to 250 nM at CDK4/CCND3 (setting [6]), above 250 nM on CDK1/CCNB1 (setting [7]) and below 25 nM on CDK2/CCNE1 (setting [4]).

Turning to `CS(=O)(=O)N1CCC(Nc2cc3c(C4=CCCCC4)nccc3cn2)CC1` [Ex 102, 5-(cyclohex-1-en-1-yl)-N-(1-(methylsulfonyl)piperidin-4-yl)-2,6-naphthyridin-3-amine], the IC50 on CDK6/CCND1 (setting [1]) was below 25 nM; on CDK4/CCND3 (setting [2]), below 25 nM; at CDK1/CCNB1 (setting [3]), 25 to 250 nM; at CDK2/CCNE1 (setting [4]), below 25 nM.

Turning to `C=CS(=O)(=O)N1CCC(Nc2cc3c(N4CCC(C5CCN(C)CC5)CC4)nccc3cn2)CC1` [Ex 103, 5-(1'-methyl-[4,4'-bipiperidin]-1-yl)-N-(1-(vinylsulfonyl)piperidin-4-yl)-2,6-naphthyridin-3-amine], the IC50 was 25 to 250 nM at CDK6/CCND1 (setting [5]), 25 to 250 nM on CDK4/CCND3 (setting [6]), above 250 nM at CDK1/CCNB1 (setting [7]) and 25 to 250 nM at CDK2/CCNE1 (setting [8]).

For the compound `C=CS(=O)(=O)N1CCC(Nc2cc3c(N4CCC(C#N)CC4)nccc3cn2)CC1` [Ex 106, 1-(7-((1-(vinylsulfonyl)piperidin-4-yl)amino)-2,6-naphthyridin-1-yl)piperidine-4-carbonitrile], the IC50 was 25 to 250 nM on CDK6/CCND1 (setting [5]), 25 to 250 nM on CDK4/CCND3 (setting [6]), 25 to 250 nM on CDK1/CCNB1 (setting [3]) and below 25 nM at CDK2/CCNE1 (setting [4]).

Regarding `C=CS(=O)(=O)N1CCC(Nc2cc3c(-c4ccncc4C)nccc3cn2)CC1` [Ex 107, 5-(3-methylpyridin-4-yl)-N-(1-(vinylsulfonyl)piperidin-4-yl)-2,6-naphthyridin-3-amine], the IC50 at CDK6/CCND1 (setting [5]) was 25 to 250 nM; at CDK4/CCND3 (setting [6]) it was 25 to 250 nM; at CDK1/CCNB1 (setting [7]), above 250 nM; at CDK2/CCNE1 (setting [4]), below 25 nM.

On to `O=C(ON1C(=O)CCC1=O)c1ccc(Nc2cc3c(C4=CCCCC4)nccc3cn2)cc1` [Ex 113, 2,5-dioxopyrrolidin-1-yl 4-((5-(cyclohex-1-en-1-yl)-2,6-naphthyridin-3-yl)amino)benzoate], for which the IC50 was 25 to 250 nM at CDK6/CCND1 (setting [5]); 25 to 250 nM on CDK4/CCND3 (setting [6]); below 25 nM at CDK1/CCNB1 (<25 nM, read-out: CDK1/CCNB IC50 <25 nM); below 25 nM at CDK2/CCNE1 (setting [4]).

Consider `Cc1c(-c2nccc3cnc(NC4CCN(S(C)(=O)=O)CC4)cc23)ccc2[nH]ncc12` [Ex 116, 5-(4-methyl-1H-indazol-5-yl)-N-(1-(methylsulfonyl)piperidin-4-yl)-2,6-naphthyridin-3-amine], for which the IC50 on CDK6/CCND1 (setting [1]) was below 25 nM; at CDK4/CCND3 (setting [2]), below 25 nM; at CDK1/CCNB1 (setting [3]) it was 25 to 250 nM; on CDK2/CCNE1 (setting [4]) it was below 25 nM.

For the compound `Cc1cc2[nH]ncc2cc1-c1nccc2cnc(NC3CCN(S(C)(=O)=O)CC3)cc12` [Ex 117, 5-(6-methyl-1H-indazol-5-yl)-N-(1-(methylsulfonyl)piperidin-4-yl)-2,6-naphthyridin-3-amine], the IC50 is below 25 nM at CDK6/CCND1 (setting [1]), below 25 nM at CDK4/CCND3 (setting [2]), 25 to 250 nM on CDK1/CCNB1 (setting [3]) and below 25 nM at CDK2/CCNE1 (setting [4]).
